Source: patent publication US5187157A, “Peptide boronic acid inhibitors of trypsin-like proteases” (Du Pont Merck Pharmaceutical Company, priority 1988, dated 1993)

Tests used:
[1] = tested on: normal rabbit plasma; test: Thrombin times (TT), blood coagulation in vitro; type: biochemical; conditions: thrombin 4 μ/ml
Procedure: A mixture of 0.2 ml of normal rabbit plasma and 0.05 ml of buffer containing the inhibitor at 6 times the desired final concentration was warmed to 37° C. Clotting was initiated by addition of thrombin (0.05 ml at 6 times the final concentration). The thrombin used was purchased from Sigma Chemical Company (No. T-6634, activity 1190 NIH units per mg protein) and prepared in buffer. The buffer employed for both the inhibitor and the thrombin was 0.1 M Tris buffer (12.10 g/L), containing 0.154 M NaCl (8.84 g/L) and 2.5 mg/ml bovine serum albumin, pH 7.4. The clotting times, measured in seconds, were determined using a fibrometer. The effects of the inhibitor on blood clotting times compared with the blood clotting times of controls run in the absence of inhibitors, are shown in Table 6. Values represent the average of at least three determinations.

[2] = tested on: Sprague Dawley CD Rats; test: Inhibition of Blood Coagulation Following In Vivo Oral Dosing (thrombin times of plasma)
Procedure: Male rats (Sprague Dawley CD Rats, 130-140 g, supplied by Charles River Labs, Inc., Wilmington, MA) were anesthetized with sodium pentobarbital (50 mg/kg, i.p.). A midline incision was made on the ventral surface of the neck, and a polyethylene catheter was inserted in one of the carotid arteries and exteriorized at the back of the neck. After recovery from anesthesia, control blood samples were taken from the carotid artery catheter, anticoagulated with sodium citrate, and centrifuged (2000×g, 10 minutes). Plasma was transferred to plastic tubes and kept on ice until it was assayed. Thrombin times were measured using a fibrometer, as described in Examples 125-127.
The vehicle employed was 5% dimethylsulfoxide in saline. Blood samples were taken at various times after oral dosing and assayed as described above. When clotting time exceeded 300 seconds, it is reported below as >300.

[3] = tested on: rats; test: Survival after thrombin infusion following oral dosing; type: in vivo; conditions: 5 mg/kg orally in water; 500 units/kg thrombin infused thirty to sixty minutes later; water controls: all fourteen died
Source text: Thirty to sixty minutes later, all rats received an infusion of 500 units/kg thrombin over a period of one minute. All fourteen rats given only water died within ten minutes of the thrombin infusion. In contrast only 8 out of 17 rats treated with the inhibitor-containing water died within ten minutes, and the remainder survived one hour, at which time they were euthanized.

[4] = tested on: Male Lewis rats; test: In Vivo Inhibition of Blood Coagulation Following Oral, Colonic and Rectal Administration; conditions: mean for 3 rats
Procedure: Male Lewis rats weighing between 300-350 g were anesthetized with sodium pentobarbitol (50 mg/kg, i.p.) and the jugular vein was cannulated using a silastic tubing attached to a polyethylene 50 tubing. The tubing was exteriorized at the back of the neck and attached to a syringe through a stop cock. […] The blood samples were then transferred into vacutainers containing citrate buffer. Also, after each collection the cannula was flushed with saline. The blood samples were then centrifuged immediately (2500 rpm for 15 min) and 0.2 ml of the plasma samples were used for clotting time measurements. The clotting time measurements were carried out using a fibrometer as follows. First, plasma (0.2 ml) was placed in a fibro cup, and pH 7.4 Tris buffer (50 microliters) was added. The plasma buffer solution was incubated at 37° C. for 1 min, 50 microters of a 24 μ/ml thrombin solution in Tris buffer was then added, and clotting time in seconds was measured. When clotting time exceeded 300 seconds, it is reported below as >300.
The jugular vein-cannulated rats were allowed to recover from anesthesia before they were dosed orally. The protease inhibitor Ac-(D)Phe-Pro-boroArg--OH aqueous solution, consisting of 3 mg of inhibitor per kg weight of rat (approximately 1 mg/rat) in a volume of 0.75 ml of water per kg of rat, was administered by gavage.
A 3 cm incision was made in the abdomen of the jugular vein-cannulated rats while they were still under anesthesia. The colon was located and was tied off at both the beginning and the end. The protease inhibitor Ac-(D)Phe-Pro-boroArg--OH aqueous solution, consisting of 3 mg of inhibitor per kg weight of rat (approximately 1 mg/rat) in a volume of 1 ml of water per kg weight of rat, was injected at the beginning into the colon cavity. The incision was closed using wound clips.
The procedure for rectal administration in the jugular vein-cannulated rats was as described by Kamiya et al., J. Pharm. Sci., 71: 621 (1982). In brief, a device was made consisting of a 0.89 cm and a 0.71 cm silicon rubber septa connected by a 2 cm length of wire. This device was inserted into the rectum of the rat, the large septum first, and glued to the annus using suitable glue. Dosing was accomplished by injection through the exposed septum. The rectal dose was 3 mg of the protease inhibitor Ac-(D)Phe-Pro-boroArg--OH per kg weight of rat (approximately 1 mg/rat) in a volume of 0.6 ml of water per kg of rat.

[5] = target: chymotrypsin (Bos taurus, UniProt P00766); conditions: literature; cited from earlier work

SMILES: CC(=O)N[C@H](Cc1ccccc1)C(=O)N1CCC[C@H]1C(=O)N[C@@H](CCCN=C(N)N)B(O)O.Cl [Ac-(D)Phe-Pro-boroArg-OH, Ac-(D)Phe-Pro-boroArg-OH.HCl]
- Thrombin Times ([1]; inhibitor 50 nM, mean ± standard deviation): 32.7 ± 0.8 s
- Thrombin Times ([1]; inhibitor 100 nM, mean ± standard deviation): 62.4 ± 7.2 s
- Thrombin Times ([1]; inhibitor 150 nM, terminated at 300 seconds): > 300 s
- clotting times (thrombin times) ([2]; oral gavage 1 mg, 1 hr): > 300 s
- clotting times (thrombin times) ([2]; oral gavage 1 mg, 2 hr): > 300 s
- clotting times (thrombin times) ([2]; oral gavage 1 mg, 3 hr): > 300 s
- clotting times (thrombin times) ([2]; oral gavage 1 mg, 4 hr, mean ± standard deviation): 47 ± 4 s
- clotting times (thrombin times) ([2]; oral gavage 1 mg, 6 hr, mean ± standard deviation): 46 ± 3 s
- clotting times (thrombin times) ([2]; oral gavage 1 mg, .5 hr): > 300 s
- clotting times (thrombin times) ([2]; oral gavage 2 mg, 4 hr, mean ± standard deviation): 54 ± 29 s
- clotting times (thrombin times) ([2]; oral gavage 2 mg, 6 hr, mean ± standard deviation): 44 ± 4 s
- clotting times (thrombin times) ([2]; oral gavage 2 mg, .5 hr): > 300 s
- clotting times (thrombin times) ([2]; oral gavage 10 mg, 1 hr): > 300 s
- clotting times (thrombin times) ([2]; oral gavage 10 mg, 2 hr): > 300 s
- clotting times (thrombin times) ([2]; oral gavage 10 mg, 3 hr): > 300 s
- clotting times (thrombin times) ([2]; oral gavage 10 mg, .5 hr): > 300 s
- rats died within ten minutes of the thrombin infusion [3]: 8 out of 17
- Clotting Time ([4]; colonic 3 mg/kg, 0.0 hr): 59.4 s
- Clotting Time ([4]; colonic 3 mg/kg, 0.5 hr): > 300 s
- Clotting Time ([4]; colonic 3 mg/kg, 1.0 hr): > 300 s
- Clotting Time ([4]; colonic 3 mg/kg, 2.0 hr): > 300 s
- Clotting Time ([4]; colonic 3 mg/kg, 4.0 hr): > 300 s
- Clotting Time ([4]; colonic 3 mg/kg, 5.0 hr): > 300 s
- Clotting Time ([4]; oral 3 mg/kg, 0.00 hr): 57.3 s
- Clotting Time ([4]; oral 3 mg/kg, 0.25 hr): > 300 s
- Clotting Time ([4]; oral 3 mg/kg, 0.50 hr): > 300 s
- Clotting Time ([4]; oral 3 mg/kg, 1.00 hr): > 300 s
- Clotting Time ([4]; oral 3 mg/kg, 2.00 hr): > 300 s
- Clotting Time ([4]; oral 3 mg/kg, 3.00 hr): > 300 s
- Clotting Time ([4]; oral 3 mg/kg, 4.00 hr): > 300 s
- Clotting Time ([4]; rectal 3 mg/kg, 0 hr): 66.4 s
- Clotting Time ([4]; rectal 3 mg/kg, 0.25 hr): > 300 s
- Clotting Time ([4]; rectal 3 mg/kg, 0.5 hr): > 300 s
- Clotting Time ([4]; rectal 3 mg/kg, 1.0 hr): > 300 s
- Clotting Time ([4]; rectal 3 mg/kg, 2.0 hr): > 300 s
- Clotting Time ([4]; rectal 3 mg/kg, 4.0 hr): > 300 s

SMILES: CC(=O)N[C@@H](Cc1ccccc1)B(O)O [(R)-1-acetamido-2-phenylethane boronic acid]
- Ki [5]: 4 µM
